Laboratory results: patent US20230263782A1, “ORAL FORMULATIONS AND USES THEREOF” (INVENTISBIO CO., LTD., priority 2020, published 2023)
Values after ≈ are worked out from the molar mass of the structure shown. Structures can show the parent of a compound that is named as a salt. Where two headings read alike, the source gives them in different places.

Columns and labels:
ER = molecular target: T1, ER (Homo sapiens, UniProt P03372); conditions: clinical samples, intramuscular injection monthly; cited from earlier work
T1 sequence (P03372 1-595): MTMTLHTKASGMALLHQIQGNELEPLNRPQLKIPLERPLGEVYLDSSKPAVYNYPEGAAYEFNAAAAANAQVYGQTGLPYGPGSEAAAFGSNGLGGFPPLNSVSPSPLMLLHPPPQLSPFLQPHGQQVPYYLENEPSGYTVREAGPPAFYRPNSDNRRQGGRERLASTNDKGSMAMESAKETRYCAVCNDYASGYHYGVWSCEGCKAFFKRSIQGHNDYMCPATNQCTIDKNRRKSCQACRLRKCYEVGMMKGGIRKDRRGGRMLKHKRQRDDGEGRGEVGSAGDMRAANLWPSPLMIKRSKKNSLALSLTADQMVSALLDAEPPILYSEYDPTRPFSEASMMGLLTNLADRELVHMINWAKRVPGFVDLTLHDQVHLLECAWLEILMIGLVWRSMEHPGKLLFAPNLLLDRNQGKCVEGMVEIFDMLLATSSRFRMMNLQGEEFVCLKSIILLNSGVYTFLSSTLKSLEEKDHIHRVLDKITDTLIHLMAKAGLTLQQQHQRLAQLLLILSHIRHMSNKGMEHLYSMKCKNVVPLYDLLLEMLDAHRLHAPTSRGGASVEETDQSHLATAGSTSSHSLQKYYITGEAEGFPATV

[1] = Solubility test in pH 1.2 or pH 6.8 buffer (saturated solutions, HPLC; remaining solids by XRPD); format: physicochemical; conditions: for Stability in buffer solution (HPLC): pH 1.2 buffer solution; for Solubility at 24 h / solubility at 30 min: room temperature; for XRPD patterns at 24 h: remaining solid
Method: For solubility test: About 20 mg of Compound FA, L-lysine salt and meglumine salt (Form I) were weighed into vials, added 3 mL of pH1.2 or pH 6.8 buffer to make saturated solutions. All suspensions were kept shaking with 200 rpm at room temperature for up to 24 hours. […] At 24 hours, remaining solids were collected and determined by XRPD.

[2] = Solid stability test at 40° C./75% RH for 8 days (HPLC, XRPD); format: physicochemical; conditions: for Solid stability: 40° C./75% RH for 8 days, HPLC and XRPD; for Purity at 8 days / Purity at 0 day: HPLC; for Purity at 8 days: after 40° C./75% RH for 8 days; for Purity at 0 day: start of 40° C./75% RH storage
Method: HPLC ANALYSIS: a representative HPLC method is shown below, which can be used, for example, to analyze the purity, solubility, and stability of the salts herein.
For stability test: About 20 mg of Compound FA, L-lysine salt and meglumine salt (Form I) were weighed into vials, and put at the condition of 40° C./75% RH for 8 days. At 0 and 8 days, the solid sample was dissolved using acetonitrile/water (1/1) to make a solution with the concentration of 0.2 mg/mL. Sample solutions were analyzed by HPLC and solid samples were examined by XRPD.

[3] = Meglumine salt form interconversion study (slurry in IPA or water, XRPD); format: physicochemical; conditions: Water
Method: Interconversion study: Interconversion studies were carried out by mixing the same amount of different form solids in IPA or water, respectively. Suspensions were kept stirring at room temperature and 60° C. for several days, during which suspensions were filtrated and analyzed by XRPD.

[4] = Solid stability test of Form I at 25° C./92.5% RH for 10 days (XRPD); format: physicochemical
Method: Solid stability test of Form I at 92.5% RH for 10 days: About 20 mg of meglumine salt Form I was put into the condition of 25° C./92.5% RH for 10 days. At 10 days, the sample was analyzed by XRPD.

[5] = Physical treatment (grinding) of Form I; format: physicochemical; conditions: grinded for 2 min and 5 min
Method: Physical treatment of Form I: Form I of meglumine salt was grinded for 2 min and 5 min. After grinding, the crystallinity declined, but the crystal form was still Form I.

[6] = Solubility in water (statement); format: physicochemical
[7] = Dynamic moisture sorption analysis (DVS), XRPD before and after; format: physicochemical; conditions: FIG. 5A
Method: Dynamic moisture sorption analysis (DVS): DVS was determined using IGAsorp (Hiden Isochema, UK). The sample was tested at a targeted RH (relative humidity) of 10 to 90% full cycle in step mode. The analysis was performed in 10% RH increments.

ER+ breast cancer cells = conditions: as discussed in WO2017/136688; cited from earlier work
[8] = compared with fulvestrant, GDC-0810 and AZD9496; WO2017/136688; cited from earlier work
[9] = pH 1.2 buffer, calculated with the sum of impurities and major peak area

| SMILES | Stability in buffer solution (HPLC) [1] | Solubility at 24 h [1, 9] [µg/mL] | Solubility at 24 h ([1]; pH 6.8 buffer) [µg/mL] | XRPD patterns at 24 h ([1]; pH 1.2 buffer) | XRPD patterns at 24 h ([1]; pH 6.8 buffer) | Solid stability [2] | Purity at 8 days [2] [Area %] | Purity at 0 day [2] [Area %] | also measured |
| --- | --- | --- | --- | --- | --- | --- | --- | --- | --- |
| C[C@]12CC[C@@H]3c4ccc(O)cc4C[C@@H](CCCCCCCCC[S+]([O-])CCCC(F)(F)C(F)(F)F)[C@H]3[C@@H]1CC[C@@H]2O (some centres unmarked) [fulvestrant] | – | – | – | – | – | – | – | – | ER degradation (ER): ~50% |
| C[C@@H]1Cc2c([nH]c3ccccc23)[C@@H](c2c(Cl)cc(/C=C/C(=O)O)cc2Cl)N1CC(C)(C)F [Meglumine salt, meglumine (E)-3-(3,5-dichloro-4-((1R,3R)-2-(2-fluoro-2-methylpropyl)-3-methyl-2,3,4,9-tetrahydro-1H-pyrido[3,4-b]indol-1-yl)phenyl acrylate] | unstable | 1612 | 17 | No change | Low crystallinity | physically and chemically stable | 99.66 | 99.68 | solubility at 30 min [1, 9]: 296 µg/mL; solubility at 30 min ([1]; pH 6.8 buffer, pH 6.8, aqueous buffer, thermodynamic from solid, pH 6.8 buffer, read-out: Solubility at 30 min): 20 µg/mL; Final crystal form ([3]; 25° C.): Dihydrate; Final crystal form ([3]; 60° C.): Form I; Crystal form after storage (XRPD) [4]: remained unchanged; Crystal form after grinding [5]: still Form I |
| C[C@@H]1Cc2c([nH]c3ccccc23)[C@@H](c2c(Cl)cc(/C=C/C(=O)O)cc2Cl)N1CC(C)(C)F [Compound FA, (E)-3-(3,5-dichloro-4-((1R,3R)-2-(2-fluoro-2-methylpropyl)-3-methyl-2,3,4,9-tetrahydro-1H-pyrido[3,4-b]indol-1-yl)phenyl)acrylic acid] | unstable | 267 (≈ 562 µM) | 3 (≈ 6.31 µM) | Low crystallinity | Low crystallinity | physically and chemically stable | 96.31 | 98.02 | solubility at 30 min ([1]; pH 1.2 buffer, pH 1.2, simulated gastric fluid, thermodynamic from solid, pH 1.2 buffer, calculated with the sum of impurities and major peak area, read-out: Solubility at 30 min): 571 µg/mL (≈ 1200 µM); solubility at 30 min ([1]; pH 6.8 buffer): 14 µg/mL (≈ 29.4 µM); Solubility in water [6]: practically insoluble in water; Solid form before and after DVS studies (XRPD) [7]: did not change; growth of ER+ breast cancer cells (ER+ breast cancer cells): inhibited the growth of ER+ breast cancer cells; human hepatocyte clearance [8]: better human hepatocyte clearance |
